One may read the Ki as the dissociation constant of the complex between target and ligand, obtained from inhibition or displacement.

In the first assay the target is Genome polyprotein (Hepatitis C virus genotype 1a (isolate H77), UniProt P27958). Description: Continuous Spectrophotometric Assay.
Genome polyprotein, sequence (P27958 1027-1657 limits assumed): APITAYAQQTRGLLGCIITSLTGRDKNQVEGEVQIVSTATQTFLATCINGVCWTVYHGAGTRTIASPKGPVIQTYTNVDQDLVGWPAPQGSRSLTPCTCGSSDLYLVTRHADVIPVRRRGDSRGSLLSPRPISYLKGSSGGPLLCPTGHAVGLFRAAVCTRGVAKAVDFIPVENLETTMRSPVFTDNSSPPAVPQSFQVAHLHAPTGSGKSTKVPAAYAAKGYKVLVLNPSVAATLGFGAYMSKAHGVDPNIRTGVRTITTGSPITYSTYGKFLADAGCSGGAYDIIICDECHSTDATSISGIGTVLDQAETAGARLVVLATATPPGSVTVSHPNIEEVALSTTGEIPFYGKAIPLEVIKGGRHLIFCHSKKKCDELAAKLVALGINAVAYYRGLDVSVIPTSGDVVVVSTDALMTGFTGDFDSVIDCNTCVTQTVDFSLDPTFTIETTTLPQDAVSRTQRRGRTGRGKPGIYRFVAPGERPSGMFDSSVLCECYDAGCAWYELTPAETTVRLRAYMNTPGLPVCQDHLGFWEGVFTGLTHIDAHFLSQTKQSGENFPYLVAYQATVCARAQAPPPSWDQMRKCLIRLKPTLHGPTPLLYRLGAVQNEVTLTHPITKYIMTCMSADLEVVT
Details: not given
How it is done: Proteolytic cleavage of the ester linkage between the Nva (L-norvaline) and the chromophore (PAP) was monitored for change in absorbance at 370 nm. Initial velocities were determined using linear regression and kinetic constants were obtained by fitting the data to the Michaelis-Menten equation.
On to `CCCC(NC(=O)[C@@H]1C[C@@H]2CN1C(=O)[C@H](C1CCCCC1)NC(=O)Cc1cccc(c1)OCCCN2S(=O)(=O)c1ccccc1)C(=O)C(=O)NCC(=O)N[C@H](C(=O)N(C)C)c1ccccc1` (stereo partly drawn) [3-{[(7R,9S,12S)-6-(benzenesulfonyl)-12-cyclohexyl-11,14-dioxo-2-oxa-6,10,13-triazatricyclo[14.3.1.1^{7,10}]henicosa-1(20),16,18-trien-9-yl]formamido}-N-({[(S)-(dimethylcarbamoyl)(phenyl)methyl]carbamoyl}methyl)-2-oxohexanamide], for which the inhibition constant (Ki) was 36 nM.
The same measure, in the same setting: for `CCCC(NC(=O)[C@@H]1C[C@@H]2CN1C(=O)[C@H](C1CCCCC1)NC(=O)Cc1cccc(c1)OCCCS2(=O)=O)C(=O)C(=O)NCC(=O)N[C@H](C(=O)N(C)C)c1ccccc1` (stereo partly drawn) [(2S)-({N-[3-({[(7R,9S,12S)-12-cyclohexyl-6,6-dioxido-11,14-dioxo-2-oxa-6-thia-10,13-diazatricyclo[14.3.1.17,10]henicosa-1(20),16,18-trien-9-yl]carbonyl}amino)-2-oxohexanoyl]glycyl}amino)(phenyl)acetic acid N,N-dimethyl amide] the value was 3300 nM.

The same assay, now with this note: pH 6.5; 30 °C.
Take `CCCC(NC(=O)[C@@H]1C[C@@H]2CN1C(=O)[C@H](C1CCCCC1)NC(=O)Cc1cccc(c1)OCCCCO2)C(=O)C(=O)NCC(=O)N[C@H](C(=O)N(C)C)c1ccccc1` (stereo partly drawn) [3-{[(5S,8S,10R)-5-cyclohexyl-3,6-dioxo-11,16-dioxa-4,7-diazatricyclo[15.3.1.1^{7,10}]docosa-1(20),17(21),18-trien-8-yl]formamido}-N-({[(S)-(dimethylcarbamoyl)(phenyl)methyl]carbamoyl}methyl)-2-oxohexanamide]: the Ki was found to be 7 nM.
Same read-out and setting: under `CCCC(NC(=O)[C@@H]1C[C@@H]2CN1C(=O)[C@H](C1CCCCC1)NC(=O)Cc1cccc(c1)OCCO2)C(=O)C(=O)NCC(=O)N[C@H](C(=O)N(C)C)c1ccccc1` (stereo partly drawn) [3-{[(6R,8S,11S)-11-cyclohexyl-10,13-dioxo-2,5-dioxa-9,12-diazatricyclo[13.3.1.1^{6,9}]icosa-1(19),15,17-trien-8-yl]formamido}-N-({[(S)-(dimethylcarbamoyl)(phenyl)methyl]carbamoyl}methyl)-2-oxohexanamide] stands 30 nM; under `CCCC(NC(=O)[C@@H]1C[C@@H]2CN1C(=O)[C@H](C1CCCCC1)NC(=O)Cc1cccc(c1)OCCCS2)C(=O)C(=O)NCC(=O)N[C@H](C(=O)N(C)C)c1ccccc1` (stereo partly drawn) [(2S)-({N-[3-({[(7R,9S,12S)-12-cyclohexyl-11,14-dioxo-2-oxa-6-thia-10,13-diazatricyclo[14.3.1.17,10]henicosa-1(20),16,18-trien-9-yl]carbonyl}amino)-2-oxohexanoyl]glycyl}amino)(phenyl)acetic acid N,N-dimethyl amide], 10 nM.
Consider `CCC[C@H](NC(=O)[C@@H]1C[C@@H]2CN1C(=O)[C@H](C(C)(C)C)NC(=O)Cc1cccc(c1)OCCCO2)C(=O)C(=O)NCC(=O)N[C@H](C(=O)N(C)C)c1ccccc1` [(2S)-({N-[(3S)-3-({[(7R,9S,12S)-12-tert-butyl-11,14-dioxo-2,6-dioxa-10,13-diazatricyclo[14.3.1.17,10]henicosa-1(20),16,18-trien-9-yl]carbonyl}amino)-2-oxohexanoyl]glycyl}amino)(phenyl)acetic acid N,N-dimethyl amide], for which the inhibition constant Ki came to 15 nM.
Take `CCC[C@H](NC(=O)[C@@H]1C[C@H]2CN1C(=O)[C@H](C(C)(C)C)NC(=O)Cc1cccc(c1)OCCCO2)C(=O)C(=O)NCC(=O)N[C@H](C(=O)N(C)C)c1ccccc1` [(2S)-({N-[(3S)-3-({[(7S,9S,12S)-12-tert-butyl-11,14-dioxo-2,6-dioxa-10,13-diazatricyclo[14.3.1.17,10]henicosa-1(20),16,18-trien-9-yl]carbonyl}amino)-2-oxohexanoyl]glycyl}amino)(phenyl)acetic acid N,N-dimethyl amide]: the inhibitory constant (Ki) came out at 130 nM.
